From ChEMBL document CHEMBL1124665, “Is there a case for P-450 inhibitors in cancer treatment?” (J Med Chem, 1989)

What was measured:
Aromatase [1] = molecular target: T1, Aromatase (Homo sapiens, UniProt P11511); assay: In vitro inactivation of human placental Cytochrome P450 19A1
T1 sequence (P11511 whole entry): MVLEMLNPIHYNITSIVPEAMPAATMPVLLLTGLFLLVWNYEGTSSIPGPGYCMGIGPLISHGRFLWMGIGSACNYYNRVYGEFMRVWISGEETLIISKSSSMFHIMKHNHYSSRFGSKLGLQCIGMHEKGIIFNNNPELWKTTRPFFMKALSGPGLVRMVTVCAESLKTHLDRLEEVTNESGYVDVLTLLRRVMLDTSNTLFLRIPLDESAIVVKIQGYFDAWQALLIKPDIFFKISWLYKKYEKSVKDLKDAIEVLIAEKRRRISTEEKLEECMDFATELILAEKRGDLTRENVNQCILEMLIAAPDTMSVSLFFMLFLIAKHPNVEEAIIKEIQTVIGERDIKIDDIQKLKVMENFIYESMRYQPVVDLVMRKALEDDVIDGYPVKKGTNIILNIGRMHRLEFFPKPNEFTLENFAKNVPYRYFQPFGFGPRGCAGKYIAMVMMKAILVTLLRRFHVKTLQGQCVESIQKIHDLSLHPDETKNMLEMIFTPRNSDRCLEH

Aromatase [2] = molecular target: T1, Aromatase; assay: In vitro inhibition of Cytochrome P450 19A1
Aromatase [3] = molecular target: T1, Aromatase; assay: Effective dose for inhibition of extragonadal estrogen production in baboons; format: functional; details: papio hamadryas; target entry is the homologue from another species

| Compound | kinact (Aromatase [1]) | Ki (Aromatase [2]) | ED50 (Aromatase [3]) |
| --- | --- | --- | --- |
| CC12CCC3C(CCC4=C(O)C(=O)CCC43C)C1CCCC2=O (configuration not stated) | 0.00041 s⁻¹ | 10.2 nM |  |
| C#CC[C@]12CCC(=O)C=C1CC[C@@H]1[C@@H]2CC[C@]2(C)C(=O)CC[C@@H]12 [PLOMESTANE] | 0.0011 s⁻¹ | 4 nM | 4 mg/kg |
| C[C@]12C=CC(=O)C=C1CC[C@@H]1[C@@H]2CC[C@]2(C)OC(=O)CC[C@@H]12 [TESTOLACTONE] | 0.00036 s⁻¹ | 35000 nM |  |
